Source: the supplement of paper PMC8882468

The molecules below were run on HCI-010 (organoid from a breast cancer xenograft) (assay: CTG-3D luminescence at 96 h relative to day-0 seeding control (ratio to day 0); higher = more growth / less cytotoxicity; PDxO 3D drug screen, 96 h, CTG-3D normalised to day-0 seeding control.). Settings: 12.5 pM; days in culture: 52.

| SMILES | CTG-3D luminescence at 96 h |
| --- | --- |
| COc1cc2c(Oc3ccc4[nH]c(C)cc4c3F)ncnc2cc1OCCCN1CCCC1 [cediranib] | 1.94 |
| CC(C)n1nc(-c2ccc3oc(N)nc3c2)c2c(N)ncnc21 [sapanisertib] | 2.19 |
| Cc1cc(Nc2ncnc3ccc(NC4=NC(C)(C)CO4)cc23)ccc1Oc1ccn2ncnc2c1 [tucatinib] | 2.07 |
| C[C@H](NC(=O)CCC(F)(F)F)C(=O)N[C@@H]1C(=O)N(CCO)c2ncccc2-c2ccccc21 [crenigacestat] | 2.36 |
| C[C@]12CC[C@@H]3c4ccc(O)cc4C[C@@H](CCCCCCCCC[S+]([O-])CCCC(F)(F)C(F)(F)F)[C@H]3[C@@H]1CC[C@@H]2O (some centres not stated) [fulvestrant] | 2.11 |
| O=C(c1ccc(F)c(F)c1Nc1ccc(I)cc1F)N1CC(O)([C@@H]2CCCCN2)C1 [cobimetinib] | 2.3 |
| O=C(/C=C/c1cccnc1)NCCCCC1CCN(C(=O)c2ccccc2)CC1 [FK866] | 2.32 |
| CS(=O)(=O)c1ccc(C(=O)Nc2ccc(Cl)c(-c3ccccn3)c2)c(Cl)c1 [vismodegib] | 1.83 |
| C=CCn1c(=O)c2cnc(Nc3ccc(N4CCN(C)CC4)cc3)nc2n1-c1cccc(C(C)(C)O)n1 [adavosertib] | 2.37 |

Same assay, conditions: 12.5 pM; days in culture: 65

| SMILES | CTG-3D luminescence at 96 h |
| --- | --- |
| COc1cc2c(Oc3ccc4[nH]c(C)cc4c3F)ncnc2cc1OCCCN1CCCC1 [cediranib] | 1.55 |
| CC(C)n1nc(-c2ccc3oc(N)nc3c2)c2c(N)ncnc21 [sapanisertib] | 1.61 |
| Cc1cc(Nc2ncnc3ccc(NC4=NC(C)(C)CO4)cc23)ccc1Oc1ccn2ncnc2c1 [tucatinib] | 1.6 |
| C[C@H](NC(=O)CCC(F)(F)F)C(=O)N[C@@H]1C(=O)N(CCO)c2ncccc2-c2ccccc21 [crenigacestat] | 1.61 |
| C[C@]12CC[C@@H]3c4ccc(O)cc4C[C@@H](CCCCCCCCC[S+]([O-])CCCC(F)(F)C(F)(F)F)[C@H]3[C@@H]1CC[C@@H]2O (some centres not stated) [fulvestrant] | 1.66 |
| O=C(c1ccc(F)c(F)c1Nc1ccc(I)cc1F)N1CC(O)([C@@H]2CCCCN2)C1 [cobimetinib] | 1.64 |
| O=C(/C=C/c1cccnc1)NCCCCC1CCN(C(=O)c2ccccc2)CC1 [FK866] | 1.59 |
| CS(=O)(=O)c1ccc(C(=O)Nc2ccc(Cl)c(-c3ccccn3)c2)c(Cl)c1 [vismodegib] | 1.54 |
| C=CCn1c(=O)c2cnc(Nc3ccc(N4CCN(C)CC4)cc3)nc2n1-c1cccc(C(C)(C)O)n1 [adavosertib] | 1.57 |

Same assay, conditions: 12.5 pM; days in culture: 103

| SMILES | CTG-3D luminescence at 96 h |
| --- | --- |
| COc1cc2c(Oc3ccc4[nH]c(C)cc4c3F)ncnc2cc1OCCCN1CCCC1 [cediranib] | 3.58 |
| CC(C)n1nc(-c2ccc3oc(N)nc3c2)c2c(N)ncnc21 [sapanisertib] | 3.65 |
| Cc1cc(Nc2ncnc3ccc(NC4=NC(C)(C)CO4)cc23)ccc1Oc1ccn2ncnc2c1 [tucatinib] | 3.37 |
| C[C@H](NC(=O)CCC(F)(F)F)C(=O)N[C@@H]1C(=O)N(CCO)c2ncccc2-c2ccccc21 [crenigacestat] | 3.59 |
| C[C@]12CC[C@@H]3c4ccc(O)cc4C[C@@H](CCCCCCCCC[S+]([O-])CCCC(F)(F)C(F)(F)F)[C@H]3[C@@H]1CC[C@@H]2O (some centres not stated) [fulvestrant] | 3.27 |
| O=C(c1ccc(F)c(F)c1Nc1ccc(I)cc1F)N1CC(O)([C@@H]2CCCCN2)C1 [cobimetinib] | 3.83 |
| O=C(/C=C/c1cccnc1)NCCCCC1CCN(C(=O)c2ccccc2)CC1 [FK866] | 3.4 |
| CS(=O)(=O)c1ccc(C(=O)Nc2ccc(Cl)c(-c3ccccn3)c2)c(Cl)c1 [vismodegib] | 2.84 |
| C=CCn1c(=O)c2cnc(Nc3ccc(N4CCN(C)CC4)cc3)nc2n1-c1cccc(C(C)(C)O)n1 [adavosertib] | 3.65 |

Same assay, conditions: 0.00025 µM; days in culture: 52

| SMILES | CTG-3D luminescence at 96 h |
| --- | --- |
| COc1cc2c(Oc3ccc4[nH]c(C)cc4c3F)ncnc2cc1OCCCN1CCCC1 [cediranib] | 2.48 |
| CC(C)n1nc(-c2ccc3oc(N)nc3c2)c2c(N)ncnc21 [sapanisertib] | 2.6 |
| Cc1cc(Nc2ncnc3ccc(NC4=NC(C)(C)CO4)cc23)ccc1Oc1ccn2ncnc2c1 [tucatinib] | 2.16 |
| C[C@H](NC(=O)CCC(F)(F)F)C(=O)N[C@@H]1C(=O)N(CCO)c2ncccc2-c2ccccc21 [crenigacestat] | 2.09 |
| C[C@]12CC[C@@H]3c4ccc(O)cc4C[C@@H](CCCCCCCCC[S+]([O-])CCCC(F)(F)C(F)(F)F)[C@H]3[C@@H]1CC[C@@H]2O (some centres not stated) [fulvestrant] | 2.41 |
| O=C(c1ccc(F)c(F)c1Nc1ccc(I)cc1F)N1CC(O)([C@@H]2CCCCN2)C1 [cobimetinib] | 2.56 |
| O=C(/C=C/c1cccnc1)NCCCCC1CCN(C(=O)c2ccccc2)CC1 [FK866] | 2.72 |
| CS(=O)(=O)c1ccc(C(=O)Nc2ccc(Cl)c(-c3ccccn3)c2)c(Cl)c1 [vismodegib] | 1.98 |
| C=CCn1c(=O)c2cnc(Nc3ccc(N4CCN(C)CC4)cc3)nc2n1-c1cccc(C(C)(C)O)n1 [adavosertib] | 2.26 |

Same assay, conditions: 0.00025 µM; days in culture: 65

| SMILES | CTG-3D luminescence at 96 h |
| --- | --- |
| COc1cc2c(Oc3ccc4[nH]c(C)cc4c3F)ncnc2cc1OCCCN1CCCC1 [cediranib] | 1.65 |
| CC(C)n1nc(-c2ccc3oc(N)nc3c2)c2c(N)ncnc21 [sapanisertib] | 1.71 |
| Cc1cc(Nc2ncnc3ccc(NC4=NC(C)(C)CO4)cc23)ccc1Oc1ccn2ncnc2c1 [tucatinib] | 1.68 |
| C[C@H](NC(=O)CCC(F)(F)F)C(=O)N[C@@H]1C(=O)N(CCO)c2ncccc2-c2ccccc21 [crenigacestat] | 1.63 |
| C[C@]12CC[C@@H]3c4ccc(O)cc4C[C@@H](CCCCCCCCC[S+]([O-])CCCC(F)(F)C(F)(F)F)[C@H]3[C@@H]1CC[C@@H]2O (some centres not stated) [fulvestrant] | 1.76 |
| O=C(c1ccc(F)c(F)c1Nc1ccc(I)cc1F)N1CC(O)([C@@H]2CCCCN2)C1 [cobimetinib] | 1.75 |
| O=C(/C=C/c1cccnc1)NCCCCC1CCN(C(=O)c2ccccc2)CC1 [FK866] | 1.73 |
| CS(=O)(=O)c1ccc(C(=O)Nc2ccc(Cl)c(-c3ccccn3)c2)c(Cl)c1 [vismodegib] | 1.74 |
| C=CCn1c(=O)c2cnc(Nc3ccc(N4CCN(C)CC4)cc3)nc2n1-c1cccc(C(C)(C)O)n1 [adavosertib] | 1.67 |

Same assay, conditions: 0.00025 µM; days in culture: 103

| SMILES | CTG-3D luminescence at 96 h |
| --- | --- |
| COc1cc2c(Oc3ccc4[nH]c(C)cc4c3F)ncnc2cc1OCCCN1CCCC1 [cediranib] | 3.43 |
| CC(C)n1nc(-c2ccc3oc(N)nc3c2)c2c(N)ncnc21 [sapanisertib] | 3.1 |
| Cc1cc(Nc2ncnc3ccc(NC4=NC(C)(C)CO4)cc23)ccc1Oc1ccn2ncnc2c1 [tucatinib] | 3.95 |
| C[C@H](NC(=O)CCC(F)(F)F)C(=O)N[C@@H]1C(=O)N(CCO)c2ncccc2-c2ccccc21 [crenigacestat] | 3.73 |
| C[C@]12CC[C@@H]3c4ccc(O)cc4C[C@@H](CCCCCCCCC[S+]([O-])CCCC(F)(F)C(F)(F)F)[C@H]3[C@@H]1CC[C@@H]2O (some centres not stated) [fulvestrant] | 3.34 |
| O=C(c1ccc(F)c(F)c1Nc1ccc(I)cc1F)N1CC(O)([C@@H]2CCCCN2)C1 [cobimetinib] | 3.96 |
| O=C(/C=C/c1cccnc1)NCCCCC1CCN(C(=O)c2ccccc2)CC1 [FK866] | 3.45 |
| CS(=O)(=O)c1ccc(C(=O)Nc2ccc(Cl)c(-c3ccccn3)c2)c(Cl)c1 [vismodegib] | 3.06 |
| C=CCn1c(=O)c2cnc(Nc3ccc(N4CCN(C)CC4)cc3)nc2n1-c1cccc(C(C)(C)O)n1 [adavosertib] | 3.76 |

Same assay, conditions: 0.005 µM; days in culture: 52

| SMILES | CTG-3D luminescence at 96 h |
| --- | --- |
| COc1cc2c(Oc3ccc4[nH]c(C)cc4c3F)ncnc2cc1OCCCN1CCCC1 [cediranib] | 2.23 |
| CC(C)n1nc(-c2ccc3oc(N)nc3c2)c2c(N)ncnc21 [sapanisertib] | 1.89 |
| Cc1cc(Nc2ncnc3ccc(NC4=NC(C)(C)CO4)cc23)ccc1Oc1ccn2ncnc2c1 [tucatinib] | 2.18 |
| C[C@H](NC(=O)CCC(F)(F)F)C(=O)N[C@@H]1C(=O)N(CCO)c2ncccc2-c2ccccc21 [crenigacestat] | 2.19 |
| C[C@]12CC[C@@H]3c4ccc(O)cc4C[C@@H](CCCCCCCCC[S+]([O-])CCCC(F)(F)C(F)(F)F)[C@H]3[C@@H]1CC[C@@H]2O (some centres not stated) [fulvestrant] | 2.26 |
| O=C(c1ccc(F)c(F)c1Nc1ccc(I)cc1F)N1CC(O)([C@@H]2CCCCN2)C1 [cobimetinib] | 2.39 |
| O=C(/C=C/c1cccnc1)NCCCCC1CCN(C(=O)c2ccccc2)CC1 [FK866] | 1.25 |
| CS(=O)(=O)c1ccc(C(=O)Nc2ccc(Cl)c(-c3ccccn3)c2)c(Cl)c1 [vismodegib] | 2.08 |
| C=CCn1c(=O)c2cnc(Nc3ccc(N4CCN(C)CC4)cc3)nc2n1-c1cccc(C(C)(C)O)n1 [adavosertib] | 2.59 |

Same assay, conditions: 0.005 µM; days in culture: 65

| SMILES | CTG-3D luminescence at 96 h |
| --- | --- |
| COc1cc2c(Oc3ccc4[nH]c(C)cc4c3F)ncnc2cc1OCCCN1CCCC1 [cediranib] | 1.76 |
| CC(C)n1nc(-c2ccc3oc(N)nc3c2)c2c(N)ncnc21 [sapanisertib] | 1.34 |
| Cc1cc(Nc2ncnc3ccc(NC4=NC(C)(C)CO4)cc23)ccc1Oc1ccn2ncnc2c1 [tucatinib] | 1.97 |
| C[C@H](NC(=O)CCC(F)(F)F)C(=O)N[C@@H]1C(=O)N(CCO)c2ncccc2-c2ccccc21 [crenigacestat] | 1.79 |
| C[C@]12CC[C@@H]3c4ccc(O)cc4C[C@@H](CCCCCCCCC[S+]([O-])CCCC(F)(F)C(F)(F)F)[C@H]3[C@@H]1CC[C@@H]2O (some centres not stated) [fulvestrant] | 1.86 |
| O=C(c1ccc(F)c(F)c1Nc1ccc(I)cc1F)N1CC(O)([C@@H]2CCCCN2)C1 [cobimetinib] | 1.83 |
| O=C(/C=C/c1cccnc1)NCCCCC1CCN(C(=O)c2ccccc2)CC1 [FK866] | 0.682 |
| CS(=O)(=O)c1ccc(C(=O)Nc2ccc(Cl)c(-c3ccccn3)c2)c(Cl)c1 [vismodegib] | 1.56 |
| C=CCn1c(=O)c2cnc(Nc3ccc(N4CCN(C)CC4)cc3)nc2n1-c1cccc(C(C)(C)O)n1 [adavosertib] | 1.73 |
